In ChEMBL document CHEMBL4831528, “Discovery of Novel Pterostilbene-Based Derivatives as Potent and Orally Active NLRP3 Inflammasome Inhibitors with Inflammatory Activity for Colitis” (J Med Chem, 2021):
Activity calls are given as the source filed them. The rule behind the calls is not given here.

Experiments:
[1] = tested on: L02; test: Cytotoxicity against human L-02 cells incubated for 24 hrs by MTT assay; format: cell-based; details: L02, 24 h
[2] = target: NACHT, LRR and PYD domains-containing protein 3 (Mus musculus, UniProt Q8R4B8); test: Inhibition of NLRP3 inflammasome activation in LPS-stimulated mouse bone marrow-derived macrophages assessed as reduction in IL-1beta secretion preincubated for 30 mins followed by nigericin addition and measured after 30 mins by ELISA; format: tissue-based, Macrophage
[3] = target: NACHT, LRR and PYD domains-containing protein 3 (Mus musculus) (UniProt Q8R4B8); test: Inhibition of NLRP3 inflammasome activation in LPS-stimulated mouse bone marrow-derived macrophages assessed as reduction in caspase1 p20 secretion preincubated for 30 mins followed by nigericin addition and measured after 30 mins by Western blot analysis; format: tissue-based; details: Macrophage, time 60.0 min
Target sequence in this assay (Q8R4B8 whole entry, the tested form may be a part): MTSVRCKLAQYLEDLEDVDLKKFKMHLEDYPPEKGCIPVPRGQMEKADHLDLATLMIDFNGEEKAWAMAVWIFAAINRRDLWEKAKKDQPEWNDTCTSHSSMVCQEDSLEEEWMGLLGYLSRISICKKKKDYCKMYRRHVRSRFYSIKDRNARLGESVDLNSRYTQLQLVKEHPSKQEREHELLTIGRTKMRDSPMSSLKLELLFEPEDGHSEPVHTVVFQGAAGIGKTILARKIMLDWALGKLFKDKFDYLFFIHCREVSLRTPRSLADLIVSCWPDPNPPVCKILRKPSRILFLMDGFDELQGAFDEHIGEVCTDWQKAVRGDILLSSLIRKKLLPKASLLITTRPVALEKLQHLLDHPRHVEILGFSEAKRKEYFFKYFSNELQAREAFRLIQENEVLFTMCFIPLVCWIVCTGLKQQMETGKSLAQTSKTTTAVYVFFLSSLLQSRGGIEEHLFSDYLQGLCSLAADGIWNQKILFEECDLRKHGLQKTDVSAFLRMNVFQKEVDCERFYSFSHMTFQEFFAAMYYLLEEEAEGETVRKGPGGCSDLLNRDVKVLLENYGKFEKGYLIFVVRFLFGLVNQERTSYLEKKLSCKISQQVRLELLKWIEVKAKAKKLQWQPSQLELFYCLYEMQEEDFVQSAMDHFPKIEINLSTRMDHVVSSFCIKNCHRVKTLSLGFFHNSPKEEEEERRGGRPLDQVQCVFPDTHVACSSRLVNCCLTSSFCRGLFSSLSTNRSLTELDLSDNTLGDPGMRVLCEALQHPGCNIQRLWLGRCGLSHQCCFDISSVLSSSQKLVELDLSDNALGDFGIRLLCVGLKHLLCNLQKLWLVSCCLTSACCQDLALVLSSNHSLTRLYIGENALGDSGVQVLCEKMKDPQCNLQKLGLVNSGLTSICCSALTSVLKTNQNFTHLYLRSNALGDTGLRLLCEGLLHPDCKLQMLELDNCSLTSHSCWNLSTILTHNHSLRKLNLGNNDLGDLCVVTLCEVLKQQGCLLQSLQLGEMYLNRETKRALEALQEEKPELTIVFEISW

[4] = tested on: BMDM; test: Effect on pro-caspase1(p45) expression in LPS-stimulated mouse bone marrow-derived macrophages at 0.5 to 2 uM preincubated for 30 mins followed by nigericin addition and measured after 30 mins by Western blot analysis; format: functional, tissue-based; details: dose 0.5-2 µM, time 60.0 min
[5] = target: NACHT, LRR and PYD domains-containing protein 3 (Mus musculus) (UniProt Q8R4B8); test: Inhibition of NLRP3 inflammasome activation in LPS-stimulated mouse bone marrow-derived macrophages assessed as reduction in pro IL-1beta in cell lysate at 2 uM preincubated for 30 mins followed by MSU addition and measured after 0.5 hrs by Western blot analysis; format: subcellular; details: Macrophage, time 60.0 min
Target sequence in this assay (Q8R4B8 whole entry, the tested form may be a part): as above

[6] = target: NACHT, LRR and PYD domains-containing protein 3 (Mus musculus) (UniProt Q8R4B8); test: Inhibition of NLRP3 inflammasome activation in LPS-stimulated mouse bone marrow-derived macrophages assessed as reduction in IL-1beta secretion at 2 uM preincubated for 30 mins followed by MSU addition and measured after 0.5 hrs by ELISA; format: tissue-based; details: Macrophage, time 60.0 min
Target sequence in this assay (Q8R4B8 whole entry, the tested form may be a part): as above

[7] = target: NACHT, LRR and PYD domains-containing protein 3 (Mus musculus) (UniProt Q8R4B8); test: Inhibition of NLRP3 inflammasome activation in LPS-stimulated mouse bone marrow-derived macrophages assessed as attenuation of ASC monomer at 1 to 4 uM preincubated for 30 mins followed by nigericin addition and measured after 0.5 hrs by Western blot analysis; format: tissue-based; details: Macrophage, dose 1-4 µM, time 60.0 min
Target sequence in this assay (Q8R4B8 whole entry, the tested form may be a part): as above

[8] = target: NACHT, LRR and PYD domains-containing protein 3 (Mus musculus) (UniProt Q8R4B8); test: Inhibition of NLRP3 inflammasome activation in LPS-stimulated mouse bone marrow-derived macrophages assessed as attenuation of ASC dimer at 1 to 4 uM preincubated for 30 mins followed by nigericin addition and measured after 0.5 hrs by Western blot analysis; format: tissue-based; details: Macrophage, dose 1-4 µM
Target sequence in this assay (Q8R4B8 whole entry, the tested form may be a part): as above

[9] = target: NACHT, LRR and PYD domains-containing protein 3 (Mus musculus) (UniProt Q8R4B8); test: Inhibition of NLRP3 inflammasome activation in LPS-stimulated mouse bone marrow-derived macrophages assessed as reduction in NLRP3/ASC protein-protein interaction preincubated for 30 mins followed by nigericin addition and measured after 30 mins by immunoprecipitation method; format: tissue-based; details: Macrophage, time 60.0 min
Target sequence in this assay (Q8R4B8 whole entry, the tested form may be a part): as above

[10] = target: T1, NACHT, LRR and PYD domains-containing protein 3 (Homo sapiens, UniProt Q96P20); test: Binding affinity to His-GFP fused tagged NLRP3 (unknown origin) expressed in HEK293T incubated for 30 mins by microscale thermophoresis assay; format: cell-based
[11] = target: T1, NACHT, LRR and PYD domains-containing protein 3; test: Binding affinity to His-GFP fused tagged NLRP3 (unknown origin) expressed in HEK293T assessed as thermal stabilization at 10 uM incubated for 30 mins by cellular thermal shift assay; format: cell-based
[12] = Intrinsic clearance in human liver microsomes preincubated for 5 mins followed by NADPH addition and measured after 5 to 60 mins by LC-MS/MS analysis; format: ADME, Microsome; details: time 5-60 min, read-out: CLH
[13] = Half life in mouse at 2 mg/kg, iv measured after 0.08 to 24 hrs by LC-MS/MS analysis; format: ADME, organism-based; details: in vivo, time 0.08-24 hrs
[14] = AUC (0 to infinity) in mouse at 2 mg/kg, iv measured after 0.08 to 24 hrs by LC-MS/MS analysis; format: ADME, organism-based; parameters: route intravenous, time upper 24 hrs, dose 2 mg/kg, time lower 0.08 hrs; details: in vivo
[15] = tested on: Mus musculus; test: Protection against DSS-induced acute ulcerative colitis in C57BL/6 mouse assessed as reduction in bloody stool at 10 to 20 mg/kg, ig administered for 7 days; format: functional, organism-based; details: dose 10-20 mg/kg, time 7.0 day
[16] = tested on: Mus musculus; test: In vivo inhibition of NLRP3 inflammasome activation in C57BL/6 mouse model of DSS-induced ulcerative colitis assessed as reduction in IL-1beta expression at 10 to 20 mg/kg, ig administered for 7 days by ELISA; format: functional, organism-based; details: dose 10-20 mg/kg, time 7.0 day
[17] = Toxicity in C57BL/6 mouse assessed as weight gain at 20 to 40 mg/kg, ig administered for 28 days; format: organism-based; details: in vivo, po, 672 h, dose 20-40 mg/kg, time 28 day
[18] = Toxicity in C57BL/6 mouse assessed as loose fur at 20 to 40 mg/kg, ig administered for 28 days; format: organism-based; details: in vivo, po, 672 h, dose 20-40 mg/kg, time 28 day
[19] = Toxicity in C57BL/6 mouse assessed as induction of lethargy at 20 to 40 mg/kg, ig administered for 28 days; format: organism-based; details: in vivo, po, 672 h, dose 20-40 mg/kg, time 28 day
[20] = Toxicity in C57BL/6 mouse assessed as induction of convulsion at 20 to 40 mg/kg, ig administered for 28 days; format: organism-based; details: in vivo, po, 672 h, dose 20-40 mg/kg, time 28 day
[21] = Toxicity in C57BL/6 mouse assessed as effect on kidney at 20 to 40 mg/kg, ig administered for 28 days; format: organism-based; details: in vivo, po, 672 h, dose 20-40 mg/kg, time 28 day
[22] = Toxicity in C57BL/6 mouse assessed as effect on lung at 20 to 40 mg/kg, ig administered for 28 days; format: organism-based; details: in vivo, po, 672 h, dose 20-40 mg/kg, time 28 day
[23] = Toxicity in C57BL/6 mouse assessed as effect on liver at 20 to 40 mg/kg, ig administered for 28 days; format: organism-based; details: in vivo, po, 672 h, dose 20-40 mg/kg, time 28 day
[24] = Half life in mouse at 20 mg/kg, po measured up to 24 hrs by LC-MS/MS analysis; format: ADME, organism-based; details: in vivo
[25] = Tmax in mouse at 20 mg/kg, po measured up to 24 hrs by LC-MS/MS analysis; format: ADME, organism-based; details: in vivo
[26] = Cmax in mouse at 20 mg/kg, po measured up to 24 hrs by LC-MS/MS analysis; format: ADME, organism-based; parameters: route oral, dose 20 mg/kg, time <=24; details: in vivo
[27] = AUC (0 to infinity) in mouse at 20 mg/kg, po measured up to 24 hrs by LC-MS/MS analysis; format: ADME, organism-based; parameters: route oral, dose 20 mg/kg, time <=24; details: in vivo
[28] = Inhibition of ROS production in LPS-stimulated mouse bone marrow-derived macrophages at 1 to 4 uM preincubated for 30 mins followed by nigericin addition and measured after 0.5 hrs by Western blot analysis; details: Macrophage, dose 1-4 µM, time 60.0 min
[29] = target: NACHT, LRR and PYD domains-containing protein 3 (Mus musculus) (UniProt Q8R4B8); test: Inhibition of NLRP3 inflammasome activation in LPS-stimulated mouse bone marrow-derived macrophages assessed as reduction in ASC polymerization at 1 to 4 uM preincubated for 30 mins followed by nigericin addition and measured after 0.5 hrs by DAPI staining based confocal scanning microscopy; details: Macrophage, dose 1-4 µM
Target sequence in this assay (Q8R4B8 whole entry, looked up, the tested form may be a part): as the sequence (Q8R4B8 whole entry, the tested form may be a part) above

T1 sequence (Q96P20 whole entry, the tested form may be a part): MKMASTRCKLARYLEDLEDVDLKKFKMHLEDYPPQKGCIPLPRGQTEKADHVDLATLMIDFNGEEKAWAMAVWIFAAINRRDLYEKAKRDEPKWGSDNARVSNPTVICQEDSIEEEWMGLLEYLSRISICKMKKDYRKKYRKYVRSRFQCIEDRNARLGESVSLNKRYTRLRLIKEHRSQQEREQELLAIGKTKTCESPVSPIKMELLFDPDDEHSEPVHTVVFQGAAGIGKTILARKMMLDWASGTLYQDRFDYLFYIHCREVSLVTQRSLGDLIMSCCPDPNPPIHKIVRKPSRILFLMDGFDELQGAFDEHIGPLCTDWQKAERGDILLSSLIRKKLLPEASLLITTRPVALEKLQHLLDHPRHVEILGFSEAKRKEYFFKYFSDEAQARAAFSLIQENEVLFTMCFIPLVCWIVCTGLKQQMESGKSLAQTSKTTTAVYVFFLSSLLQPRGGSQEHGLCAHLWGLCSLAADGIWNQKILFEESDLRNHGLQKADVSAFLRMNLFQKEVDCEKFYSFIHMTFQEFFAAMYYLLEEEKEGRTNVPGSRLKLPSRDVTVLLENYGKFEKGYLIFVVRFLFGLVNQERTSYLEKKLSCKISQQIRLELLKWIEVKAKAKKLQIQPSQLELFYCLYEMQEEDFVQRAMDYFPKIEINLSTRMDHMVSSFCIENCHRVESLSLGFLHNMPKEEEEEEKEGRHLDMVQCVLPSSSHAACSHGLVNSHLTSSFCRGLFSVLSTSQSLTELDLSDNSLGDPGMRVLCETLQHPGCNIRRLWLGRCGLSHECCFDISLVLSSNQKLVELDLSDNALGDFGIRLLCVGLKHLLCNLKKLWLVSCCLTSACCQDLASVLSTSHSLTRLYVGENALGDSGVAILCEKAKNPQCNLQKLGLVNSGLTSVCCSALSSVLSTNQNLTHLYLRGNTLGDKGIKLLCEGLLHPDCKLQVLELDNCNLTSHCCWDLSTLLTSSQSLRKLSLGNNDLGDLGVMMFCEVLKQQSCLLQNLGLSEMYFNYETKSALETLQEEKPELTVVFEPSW
Chain of NACHT, LRR and PYD domains-containing protein 3 (Mus musculus, UniProt Q8R4B8) (Q8R4B8 whole entry, the tested form may be a part): as the sequence (Q8R4B8 whole entry, the tested form may be a part) above

IC50 [2]: 0.56 µM
inhibition [3]: Dose-Dependent Effect
inhibition [5]: Active
inhibition [6]: Active
inhibition [7]: Active
inhibition [8]: Active
inhibition [9]: Dose-Dependent Effect
Kd [10]: 0.263 µM
Activity [11]: Active
microsomal CLint [12]: 20.3 µL/min/mg
half-life [13]: 0.96 h
AUC(0-inf) [14]: 0.583 µg·h/mL
half-life [24]: 4.93 h
Tmax [25]: 2.33 h
Cmax [26]: 0.0951 µg/mL
AUC [27]: 0.84593 µg·h/mL
inhibition [28]: inactive
inhibition [29]: Active
SMILES: COc1cc(/C=C/c2ccc(NC(=O)C3CC3)cc2)c(/C=C/[N+](=O)[O-])c(OC)c1
IC50 [1]: > 100 µM
Activity [4]: inactive
Activity [15]: Active
inhibition [16]: Active
Activity [17]: Non-Toxic
Activity [18]: Non-Toxic
Activity [19]: Non-Toxic
Activity [20]: Non-Toxic
Activity [21]: Non-Toxic
Activity [22]: Non-Toxic
Activity [23]: Non-Toxic
